From PMC8146397 (Nanomaterials, 2021) come the findings set out here.

Data set [1] is described as follows: In vitro dissolution / CIP release at pH 5.0 for 72 h. The data set is classed as physicochemical.
Data set [2] is described as follows: In vivo pharmacokinetics after oral delivery (HPLC of plasma). The settings on record: mice. How it is done: Healthy mice weighing 30 g were kept in the primate facility with free access to food and water a day before the commencement of the experiment. The mice were divided into two groups (n = 5). […] Blood plasma was stored at −20 °C until further use.
In a further data set the test system is Salmonella typhi strains. Kind of data set: Antibacterial activity, CFU count / sterilization rate. The class given is cell-based. Conditions: Salmonella typhi 3 × 10^4 cells/ml, 3 h at 37 °C, CFU after 18 h. Here is the method:
After incubation, solidified LB agar plat was impregnated with 100 μL of the bacterial suspension.

[3] abbreviates: release kinetic model Ct = C0 + k0t.
[4] abbreviates: release kinetic model Mi/M∞ = Kth + b.
Where [5] appears, read: release kinetic model logQ0 + Kit/2.3.

“And” between values parts separate entries of the source, which are not always exact repeats. Identical values can stand only once.

As to `O=C(O)c1cn(C2CC2)c2cc(N3CCNCC3)c(F)cc2c1=O` [CIP, Ciprofloxacin], in data set [1] (setting [3]), the “Zero Order K^0” value is 32.90 and the “Zero Order R^2” value is reported as 0.5787 ± 2.57. Also, in data set [1] (setting [4]), the “Korsmeyer-Peppas N (release exponent n)” value is on record as 0.502 and the “Korsmeyer-Peppas R2” value was determined as 0.9370 ± 4.85. In data set [1] (release kinetic model Q = KH√t), the “Higuchi KH” value came out at 53.70 and the “Higuchi R2” value is 0.9360 ± 3.57. For the same compound, in data set [1] (setting [5]), the “First Order K1” value came to 0.877 and the “First Order R^2” value is listed as 0.9534 ± 1.57. The “AUMC 0-inf” value in data set [2] is 900.65 μg/mL × h^2 and 900.65 ± 1.57 μg/mL × h^2. Also, in the data set with Salmonella typhi strains, the Sterilizing rate is reported as 9 ± 3.25%.
